The record followed here is US20060069038A1, “Irreversible caspase-3 inhibitors as active site probes” (priority 2003, published 2006).

The subject of one assay is rat thymocytes. The experiment in a line: DNA fragmentation (flow cytometry) in cultured rat thymocytes. The format is cell-based. The settings on record: for IC50: Rattus norvegicus, Thymocyte. How it is done:
Rat thymocytes were cultured for 24 hours at a density of 10×10^6 cells/ml in CytoSF4 supplemented with 2 mM L-glutamine and penicillin-streptamycin and the indicated concentration of caspase inhibitors.
DNA fragmentation was determined by flow cytometry on 1.5×10^6 thymocytes or 500,000 Jurkat cells fixed for 30 min on ice in 80% EtOH. The cells were pelleted by centrifugation at 300 g for 10 min, suspended in PBS and incubated on ice for 45 min. […] Several dilutions were prepared for each sample to ensure that signal would be found within the assays linear range.
A general note: In flow cytometry, cells or beads pass a laser one at a time.

Assay [1] has as its target T1, purified recombinant human caspase-3 (Homo sapiens, UniProt P42574).
T1 construct: Active site shared between large and small caspase subunit
T1 sequence (P42574 29-175 limits assumed): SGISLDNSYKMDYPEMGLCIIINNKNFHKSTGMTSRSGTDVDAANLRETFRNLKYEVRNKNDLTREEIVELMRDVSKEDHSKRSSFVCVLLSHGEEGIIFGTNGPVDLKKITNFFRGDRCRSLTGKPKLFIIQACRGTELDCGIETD
T1 sequence (P42574 176-277 limits assumed): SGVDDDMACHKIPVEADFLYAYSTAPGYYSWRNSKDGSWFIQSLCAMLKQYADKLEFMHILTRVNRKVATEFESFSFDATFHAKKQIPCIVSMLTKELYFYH
In words: DEVD-AMC cleavage activity with recombinant human caspase-3 pre-incubated with inhibitor. The format is biochemical. The settings on record: purified recombinant caspase-3 pre-incubated with increasing amounts of M791. Here is the method:
FIG. 3. Potency assessment caspase inhibitors by [^125]-M808 labeling and by DEVD-AMC cleavage activity. A, B-Caspase inhibitor titration and [^125]-M808 labeling with purified recombinant human caspase-3. A-M791 with 5 minute labeling reaction and M791 with 60 minute labeling reaction. In A, the indicated IC50 was defined as the concentration of M791 that reduced the intensity of [^125I]-M808-labeled p17 subunit of caspase-3 by 50%. B-Caspase inhibitor titration and DEVD-AMC cleavage activity with recombinant human caspase-3 that had been incubated with indicated concentration of M791. Under the fluorogenic assay conditions Ki=IC50/2.
Tissues (rat liver, kidney, brain, thymus, mouse thymus) were either frozen or processed within 20 minutes of their removal. Rat tissues and cultured cells were homogenized in ice cold cell lysis buffer (50 mM Tris-Cl pH 7.5, 2 mM EDTA, 1% NP-40) supplemented with 5 mM DTT and Complete protease inhibitor cocktail (Roche). Thymi from mice injected with [^125I]-M808 were homogenized in lysis buffer supplemented with 25 μM of M808. Nuclear debris was removed by centrifugation at 13000 rpm for 10 min and the soluble fraction quantitated by Bradford assay (Bio-Rad). Caspase-3 like activity was determined with the fluorogenic substrate Ac-DEVD-AMC as described by Roy et al. (2001) Proc. Nat. Acad. Sci. USA 98: 6132-6137. […]

The structures appear in SMILES notation. Where two headings read alike, the source gives them in different places.

As usually defined, the IC50 is the concentration needed to halve the response being measured. As for `CCCCCN(C)CC(=O)[C@H](CC(=O)O)NC(=O)[C@H](CC)n1cc(C(C)(C)C)nc(NCc2nonc2C)c1=O` [Example M867, (3S)-3-({(2S)-2-[5-tert-butyl-3-{[(4-methyl-1,2,5-oxadiazol-3-yl)methyl]amino}-2-oxopyrazin-1(2H)-yl]butanoyl}amino)-5-[methyl(pentyl)amino]-4-oxopentanoic acid], the IC50 in the assay with rat thymocytes (cultured rat thymocytes, experiment of FIG. 5, read-out: IC50, inhibition of DNA fragmentation) was found to be 240 nM; in the assay on rat thymocytes (cultured thymocytes, N. Methot et al., in press, p<0.01 vs spectrin cleavage, read-out: IC50, inhibition of DNA fragmentation) it was 270 nM; with rat thymocytes (five independent experiments, read-out: DNA fragmentation IC50), 270 nM. Also, in the assay on rat thymocytes (ratio of IC50s), the “M867 required to inhibit DNA fragmentation compared to spectrin cleavage” value was “Three-fold”.

Regarding `COc1ccc(-c2nc(C)no2)cc1CC(=O)N[C@H](C(=O)N[C@@H](CC(=O)O)C(=O)CSCc1ccccc1)C(C)C` [Example M791, (3S)-5-(benzylthio)-3-[(N-{[2-methoxy-5-(3-methyl-1,2,4-oxadiazol-5-yl)phenyl]acetyl}-L-valyl)amino]4-oxopentanoic acid], in assay [1], the IC50 is 0.6 nM.
